Assay results as given in the NIST ThermoML archive (doi:10.1021/je9010882).
Several values for one entry are separate records, joined by “and”; a condition that tells them apart may be missing. Equal values may be shown once. ± gives the expanded uncertainty stated by the source.

Key:
[1] = xn = mol fraction of the nth substance listed; details: 101 kPa, Liquid; for speed of sound: Pulse-echo method
[2] = 101 kPa, Liquid; for speed of sound: Pulse-echo method

CCO [ethanol] + OCCO
[1], 298.15 K, x2 = 0
Details	mass density [kg/m3]	speed of sound [m/s]
–	785.144 ± 0.47	1142 ± 2.1

CCO [ethanol]
[2], 298.15 K
Details	mass density [kg/m3]	speed of sound [m/s]
–	785.144 ± 0.47	1142 ± 2.1

CCCCC(CC)CO (stereo not given) [2-ethyl-1-hexanol]
[2], 298.15 K
Details	mass density [kg/m3]	speed of sound [m/s]
–	828.667 ± 0.42	1318.4 ± 2.2

CCCCCCCCCO [nonan-1-ol] + OCCO
mass density [kg/m3], [1]
Details	x2 = 0	x2 = 0.1047	x2 = 0.204	x2 = 0.2878	x2 = 0.3927	x2 = 0.5203	x2 = 0.5982	x2 = 0.703	x2 = 0.7805	x2 = 0.9004
293.15 K	827.65 ± 0.53	837.118 ± 0.51	847.778 ± 0.48	858.547 ± 0.46	874.431 ± 0.43	898.673 ± 0.38	917.33 ± 0.35	948.15 ± 0.31	977.295 ± 0.28	1038.17 ± 0.36
298.15 K	824.238 ± 0.54	833.672 ± 0.51	844.308 ± 0.48	855.056 ± 0.46	870.919 ± 0.42	895.129 ± 0.38	913.771 ± 0.34	944.568 ± 0.29	973.695 ± 0.24	1034.58 ± 0.27

OCCO [1,2-ethanediol] + CCO
[1], 298.15 K
Details	mass density [kg/m3]	speed of sound [m/s]
x1 = 0.1002	819.39 ± 0.43	1187.5 ± 2.1
x1 = 0.198	852.357 ± 0.38	1231.7 ± 2.2
x1 = 0.3014	886.918 ± 0.33	1279.7 ± 2.2
x1 = 0.3462	901.797 ± 0.31	–
x1 = 0.3998	–	1328 ± 2.2
x1 = 0.4944	950.526 ± 0.26	1374.9 ± 2.2
x1 = 0.6428	998.611 ± 0.21	1454.5 ± 2.2
x1 = 0.7499	1032.4 ± 0.25	1513.4 ± 2.2
x1 = 0.8498	1063.88 ± 0.3	1569.5 ± 2.2
x1 = 1	–	1654.4 ± 2.2

OCCO [1,2-ethanediol] + CCCCC(CC)CO
Details	speed of sound [m/s]
[1], 298.15 K, x1 = 1	1655.2 ± 2.2

CCCCCCCCCO [nonan-1-ol]
[2], Vibrating tube method
Details	mass density [kg/m3]
293.15 K	827.65 ± 0.24
298.15 K	824.238 ± 0.25

CCCCCCCO [heptan-1-ol] + OCCO
[1], 298.15 K
Details	mass density [kg/m3]	speed of sound [m/s]
x2 = 0	818.793 ± 0.55	1327 ± 2.4
x2 = 0.0668	826.183 ± 0.53	1330.3 ± 2.4
x2 = 0.1162	832.262 ± 0.52	–
x2 = 0.2007	843.633 ± 0.49	1339.2 ± 2.3
x2 = 0.2946	858.174 ± 0.46	1346.9 ± 2.3
x2 = 0.4022	877.754 ± 0.43	1359.6 ± 2.3
x2 = 0.4834	895.05 ± 0.39	1371.6 ± 2.3
x2 = 0.5508	911.359 ± 0.38	1384.3 ± 2.3
x2 = 0.6087	927.049 ± 0.35	1398.5 ± 2.3
x2 = 0.6766	948.151 ± 0.31	1418.2 ± 2.3
x2 = 0.7988	994.195 ± 0.26	1470.8 ± 2.2
x2 = 0.894	1041.3 ± 0.3	1538 ± 2.2

CCCCC(CC)CO (stereo not given) [2-ethyl-1-hexanol] + OCCO
[1], 298.15 K
Details	mass density [kg/m3]	speed of sound [m/s]
x2 = 0	828.667 ± 0.42	1318.4 ± 2.2
x2 = 0.1858	848.929 ± 0.4	1334.2 ± 2.2
x2 = 0.2952	863.973 ± 0.38	1345.5 ± 2.2
x2 = 0.4043	881.937 ± 0.36	1358.8 ± 2.2
x2 = 0.4512	890.807 ± 0.34	–
x2 = 0.4914	899.091 ± 0.34	1372.4 ± 2.2
x2 = 0.599	924.736 ± 0.3	1394.9 ± 2.2
x2 = 0.6996	954.672 ± 0.27	1423.5 ± 2.2
x2 = 0.7985	991.938 ± 0.24	1468.2 ± 2.2
x2 = 0.8507	1015.69 ± 0.26	–
x2 = 0.9	1041.98 ± 0.3	1539.4 ± 2.2

OCCO [1,2-ethanediol]
[2]
Details	mass density [kg/m3]	speed of sound
293.15 K	1113.37 ± 0.37	–
298.15 K	–	1654.4 ± 2.2 m/s and 1655.2 ± 2.2 m/s

CCCCCCCO [heptan-1-ol]
[2], 298.15 K
Details	mass density [kg/m3]	speed of sound [m/s]
–	818.793 ± 0.55	1327 ± 2.4

OCCO [1,2-ethanediol] + CCCCCCCCCO
Details	mass density [kg/m3]
[1], 293.15 K, x1 = 1	1113.37 ± 0.37

OCCO [1,2-ethanediol] + CCCCCCCO
Details	speed of sound [m/s]
[1], 298.15 K, x1 = 1	1655.2 ± 2.2
